Patent US20200131144A1, “AMINE OR (THIO)AMIDE CONTAINING LXR MODULATORS” (Phenex-FXR GmbH, priority 2017, published 2020)

Experiments:
[1] = biological target: T1, LXRα full length (FL) (Homo sapiens, UniProt Q13133); experiment: LXR Gal4 reporter transient transfection assay, mammalian two-hybrid, FL-M2H Gal4α; format: cell-based; conditions: HEK293 cells; inverse agonist unless *
T1 construct: the full length (FL) proteins of LXRα (amino acids 1-447); NP005684; expressed in transfected cells; host or cells: HEK293
T1 sequence (Q13133 1-447): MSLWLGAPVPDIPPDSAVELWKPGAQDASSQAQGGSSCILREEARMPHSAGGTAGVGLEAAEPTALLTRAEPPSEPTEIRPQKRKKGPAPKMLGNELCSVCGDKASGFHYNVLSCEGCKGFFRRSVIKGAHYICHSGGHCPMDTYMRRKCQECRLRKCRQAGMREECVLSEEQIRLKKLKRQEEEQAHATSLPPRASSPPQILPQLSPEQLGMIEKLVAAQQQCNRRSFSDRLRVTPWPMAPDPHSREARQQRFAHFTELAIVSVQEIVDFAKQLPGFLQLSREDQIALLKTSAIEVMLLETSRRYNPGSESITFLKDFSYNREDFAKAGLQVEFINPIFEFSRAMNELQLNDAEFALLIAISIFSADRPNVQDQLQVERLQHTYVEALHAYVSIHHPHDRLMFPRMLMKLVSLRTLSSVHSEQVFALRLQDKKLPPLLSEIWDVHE
How it was run: (§1)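 HEK293 cells transiently cotransfected with NFkB-AD fusions of full-length or LBD LXRα/β, GAL4-DBD fusions of SRC1 coactivator or NCoR corepressor domains, GAL4-driven firefly luciferase and Renilla control. Compound added 4 h post-transfection (≤0.2% DMSO), 16 h incubation; firefly and Renilla luminescence read sequentially.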

[2] = biological target: T2, GST-LXRβ ligand-binding domain (Homo sapiens, UniProt P55055, INS174Q); experiment: TR-FRETβ activity assay (NCoA3 coactivator peptide recruitment); format: biochemical; conditions: 1 μM 24(S)-25-epoxycholesterol as prestimulating agonist; inverse agonist unless *
T2 construct: amino acids 156-461; NP009052; made in house; host or cells: E. coli
T2 sequence (P55055 with tags, fused parts or gaps INS174Q limits assumed): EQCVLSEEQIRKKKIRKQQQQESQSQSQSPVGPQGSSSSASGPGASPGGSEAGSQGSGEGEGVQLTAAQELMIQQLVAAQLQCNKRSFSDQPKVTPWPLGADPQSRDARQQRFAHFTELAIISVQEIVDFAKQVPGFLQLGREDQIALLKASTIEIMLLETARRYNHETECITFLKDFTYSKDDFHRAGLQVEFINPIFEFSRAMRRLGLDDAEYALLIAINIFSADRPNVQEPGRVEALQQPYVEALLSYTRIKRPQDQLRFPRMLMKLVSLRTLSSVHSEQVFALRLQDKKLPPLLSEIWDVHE
How it was run: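 E. coli-expressed GST-LXRβ LBD (aa 156-461, 76 nM) with biotinylated NCoA3 peptide (400 nM), anti-GST-Tb cryptate donor and streptavidin-XL665 acceptor in 240 mM KCl, BSA, 0.002% Triton X-100. Equilibrated 1 h at 4° C; TR-FRET read at 615/665 nm, triplicates.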

[3] = biological target: T3, LXRβ full length (FL) (Homo sapiens, UniProt P55055, INS174Q); experiment: LXR Gal4 reporter transient transfection assay, mammalian two-hybrid, FL-M2H Gal4β; format: cell-based; conditions: HEK293 cells; inverse agonist unless *
T3 construct: the full length (FL) proteins of LXRα (amino acids 1-447); NP005684; NP009052; expressed in transfected cells; host or cells: HEK293
T3 sequence (P55055 with tags, fused parts or gaps INS174Q): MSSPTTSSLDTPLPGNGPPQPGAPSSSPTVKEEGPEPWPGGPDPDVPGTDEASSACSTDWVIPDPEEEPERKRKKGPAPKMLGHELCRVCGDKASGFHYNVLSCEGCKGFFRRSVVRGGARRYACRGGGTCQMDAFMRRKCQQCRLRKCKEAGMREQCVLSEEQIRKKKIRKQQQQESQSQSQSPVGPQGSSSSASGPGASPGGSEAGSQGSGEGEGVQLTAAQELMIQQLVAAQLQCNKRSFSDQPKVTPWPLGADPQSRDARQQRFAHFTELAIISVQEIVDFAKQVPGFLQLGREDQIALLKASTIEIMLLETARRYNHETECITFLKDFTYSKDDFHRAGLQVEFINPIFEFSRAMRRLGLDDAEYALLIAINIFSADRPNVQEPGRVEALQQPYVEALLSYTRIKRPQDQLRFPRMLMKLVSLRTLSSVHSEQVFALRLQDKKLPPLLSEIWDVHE
How it was run: as §1

| SMILES | EC50 [1] | EC50 [2] | EC50 [3] | FRETβ [2] |
| --- | --- | --- | --- | --- |
| Cc1ccc2ccccc2c1C(=O)N(Cc1ccc(-c2cncc(C(C)(C)C(=O)O)c2)cc1)Cc1ccc(C(F)(F)F)o1 [27/37] | 100 to 1000 nM | 100 to 1000 nM | < 100 nM |  |
| CC(C)(C(=O)O)c1cccc(-c2ccc(CN(Cc3ccc(C(F)(F)F)o3)C(C)(C)c3cccc4ccccc34)cc2)c1 [27/39] | 100 to 1000 nM | < 100 nM | < 100 nM |  |
| O=C(O)CS(=O)(=O)c1cccc(-c2ccc(CN(Cc3ccc(C(F)(F)F)o3)C(=O)c3cccc4ccccc34)cc2)c1 [27/41] | 1000 to 10000 nM | 1000 to 10000 nM | 1000 to 10000 nM |  |
| O=C(O)CS(=O)(=O)c1cccc(-c2ccc(CN(Cc3ccc(C(F)(F)F)o3)C(=O)c3c(OC(F)F)ccc4ccccc34)cc2)c1 [27/42] | 1000 to 10000 nM | 100 to 1000 nM | 100 to 1000 nM |  |
| Cc1ccc2c(F)cccc2c1CN(Cc1ccc(-c2cccc(C(C)(C)C(=O)O)c2)cc1)Cc1ccc(C(F)(F)F)o1 [27/44] | < 100 nM | 100 to 1000 nM | < 100 nM |  |
| Cc1cc(C)c([N+](=O)[O-])c(C)c1C(=O)N(Cc1ccc(-c2cccc(C(C)(C)C(=O)O)c2)cc1)Cc1ccc(C(F)(F)F)o1 [27/46] | < 100 nM | < 100 nM | < 100 nM |  |
| Cc1cc(Br)cc(C)c1C(=O)N(Cc1ccc(-c2cccc(C(C)(C)C(=O)O)c2)cc1)Cc1ccc(C(F)(F)F)o1 [27/48] | < 100 nM | 100 to 1000 nM | < 100 nM |  |
| Cc1cc(F)cc(C)c1C(=O)N(Cc1ccc(-c2cccc(C(C)(C)C(=O)O)c2)cc1)Cc1ccc(C(F)(F)F)o1 [27/49] | < 100 nM | 100 to 1000 nM | < 100 nM |  |
| COCc1c(C)cc(C)c(C(=O)N(Cc2ccc(-c3cccc(C(C)(C)C(=O)O)c3)cc2)Cc2ccc(C(F)(F)F)o2)c1C [27/50] | < 100 nM | 100 to 1000 nM | < 100 nM |  |
| CC12CC3(C)CC(C)(C1)CC(C(=O)N(Cc1ccc(-c4cccc(C(C)(C)C(=O)O)c4)cc1)Cc1ccc(C(F)(F)F)o1)(C2)C3 [27/51] | 100 to 1000 nM |  | 100 to 1000 nM | B* |
| CCc1ccc2ccccc2c1CN(Cc1ccc(-c2cccc(C(C)(C)C(=O)O)c2)cc1)Cc1ccc(C(F)(F)F)o1 [27/52] | < 100 nM | 100 to 1000 nM | < 100 nM |  |
| Cc1ccc2ccc(F)cc2c1C(=O)N(Cc1ccc(-c2cccc(C(C)(C)C(=O)O)c2)cc1)Cc1ccc(C(F)(F)F)o1 [27/53] | < 100 nM | < 100 nM | < 100 nM |  |
| Cc1ccc2nc(C)c(C)c(C(=O)N(Cc3ccc(-c4cccc(C(C)(C)C(=O)O)c4)cc3)Cc3ccc(C(F)(F)F)o3)c2c1 [27/54] | < 100 nM | 100 to 1000 nM | < 100 nM |  |
| CC(C)(C(=O)O)c1cccc(-c2ccc(CN(Cc3ccc(C(F)(F)F)o3)C(=O)c3c4c(nc5ccccc35)CCCC4)cc2)c1 [27/55] | < 100 nM | 100 to 1000 nM | < 100 nM |  |
| Cc1ccc2ccccc2c1C(=O)N(Cc1ccc(C(F)(F)F)o1)Cc1ccc(-c2cncc(S(=O)(=O)CC(=O)O)c2)cc1Cl [27/58] | 100 to 1000 nM | 1000 to 10000 nM | 100 to 1000 nM |  |
| Cc1ccc2ccccc2c1C(=O)N(Cc1ccc(C(F)(F)F)o1)Cc1ccc(-c2cccc(S(=O)(=O)CC(=O)O)c2)cc1Cl [27/59] | 100 to 1000 nM | 100 to 1000 nM | 100 to 1000 nM |  |
| COc1cc(-c2cncc(S(=O)(=O)CC(=O)O)c2)ccc1CN(Cc1ccc(C(F)(F)F)o1)C(=O)c1c(C)ccc2ccccc12 [27/60] | 100 to 1000 nM | 1000 to 10000 nM | 100 to 1000 nM |  |
| COc1cc(-c2cccc(S(=O)(=O)CC(=O)O)c2)ccc1CN(Cc1ccc(C(F)(F)F)o1)C(=O)c1c(C)ccc2ccccc12 [27/61] | 100 to 1000 nM | 1000 to 10000 nM | 100 to 1000 nM |  |

| SMILES | EC50 [1] | EC50 [2] | EC50 [3] | FRETβ [2] |
| --- | --- | --- | --- | --- |
| Cc1ccc2ccccc2c1C(=O)N(Cc1ccc(C(F)(F)F)o1)Cc1ccc(-c2cncc(S(=O)(=O)CC(=O)O)c2)cc1C(F)(F)F [27/62] | 1000 to 10000 nM | 1000 to 10000 nM | 100 to 1000 nM |  |
| Cc1ccc2ccccc2c1C(=O)N(Cc1ccc(C(F)(F)F)o1)Cc1ccc(-c2cncc(C(C)(C)C(=O)O)c2)cc1OC(F)F [27/64] | 100 to 1000 nM | 100 to 1000 nM | < 100 nM |  |
| CCc1cc(-c2cncc(C(C)(C)C(=O)O)c2)ccc1CN(Cc1ccc(C(F)(F)F)o1)C(=O)c1c(C)ccc2ccccc12 [27/65] | < 100 nM | 100 to 1000 nM | < 100 nM |  |
| COCc1c(C)cc(C)c(CN(Cc2ccc(-c3cccc(C(C)(C)C(=O)O)c3)cc2)Cc2ccc(C(F)(F)F)o2)c1C [27/71] | < 100 nM | 100 to 1000 nM | < 100 nM |  |
| Cc1ccc2ccccc2c1CN(Cc1ccc(-c2cccc([C@H](C)C(=O)O)c2)cc1)Cc1ccc(C(F)(F)F)o1 [27/73] | < 100 nM | 100 to 1000 nM | < 100 nM |  |
| Cc1ccc2ccccc2c1C(=O)N(Cc1ccc(-c2cccc(C(C)(N)C(=O)O)c2)cc1)Cc1ccc(C(F)(F)F)o1 (stereo not drawn) [27/74] | 100 to 1000 nM | 100 to 1000 nM | < 100 nM |  |
| Cc1ccc2ccccc2c1C(=O)N(Cc1ccc(-c2cccc(C3(C(=O)O)CC3)c2)cc1)Cc1ccc(C(F)(F)F)o1 [27/75] | < 100 nM | 100 to 1000 nM | < 100 nM |  |
| COc1nc(-c2cccc(C(C)(C)C(=O)O)c2)ccc1CN(Cc1ccc(C(F)(F)F)o1)C(=O)c1c(C)ccc2ccccc12 [27/77] | < 100 nM | 1000 to 10000 nM | < 100 nM |  |
| CN1CCc2nc3ccccc3c(C(=O)N(Cc3ccc(-c4cccc(C(C)(C)C(=O)O)c4)cc3)Cc3ccc(C(F)(F)F)o3)c2C1 [27/80] | 100 to 1000 nM | 100 to 1000 nM | 100 to 1000 nM |  |
| Cc1ccc2ccccc2c1CN(Cc1ccc(-c2cccc(C(=O)C(=O)O)c2)cc1)Cc1ccc(C(F)(F)F)o1 [27/82] | 100 to 1000 nM | 1000 to 10000 nM | 100 to 1000 nM |  |
| Cc1ccc2ccccc2c1C(=O)N(Cc1ccc(-c2cccc([C@H](C)C(=O)O)c2)cc1)Cc1cccc(C(F)(F)F)c1 [27/83] | < 100 nM | < 100 nM | < 100 nM |  |
| Cc1ccc2ccccc2c1C(=O)N(Cc1ccc(-c2cccc([C@H](C)C(=O)O)c2)cc1)Cc1cccc(C#N)c1 [27/84] | < 100 nM | 100 to 1000 nM | < 100 nM |  |
| COc1cc(-c2cccc(C(C)(C)C(=O)O)c2)ncc1CN(Cc1ccc(C(F)(F)F)o1)C(=O)c1c(C)ccc2ccccc12 [27/85] | 100 to 1000 nM | 1000 to 10000 nM | 100 to 1000 nM |  |
| Cc1ccc2cnccc2c1C(=O)N(Cc1ccc(-c2cccc(C(C)(C)C(=O)O)c2)cc1)Cc1ccc(C(F)(F)F)o1 [27/86] | < 100 nM | < 100 nM | < 100 nM |  |
| CCc1nc2cnccc2c(C(=O)N(Cc2ccc(-c3cccc(C(C)(C)C(=O)O)c3)cc2)Cc2ccc(C(F)(F)F)o2)c1C [27/88] | < 100 nM | 100 to 1000 nM | < 100 nM |  |
| CCc1nc2ccncc2c(C(=O)N(Cc2ccc(-c3cccc(C(C)(C)C(=O)O)c3)cc2)Cc2ccc(C(F)(F)F)o2)c1C [27/89] | 100 to 1000 nM | 1000 to 10000 nM | 100 to 1000 nM |  |
| Cc1nc2ccccc2c(C(=O)N(Cc2ccc(C(F)(F)F)o2)Cc2ncc(-c3cccc(C(C)C(=O)O)c3)cc2Cl)c1C (stereo not drawn) [27/90] | < 100 nM | 100 to 1000 nM | < 100 nM |  |
| Cc1ccc2ccccc2c1C(=O)N(Cc1ccc(C(F)(F)F)o1)Cc1ccc(-c2cccc(C(C)(C)C(=O)O)c2)nc1N [27/91] | 100 to 1000 nM | 1000 to 10000 nM | < 100 nM |  |
